From BindingDB's records for doi:10.1016/0960-894X(96)00063-7 (1996)

Target: Squalene monooxygenase (Sus scrofa)
Experiment: Compound was evaluated for the inhibition of pig liver microsomal squalene epoxidase.

IC50: 100 nM
SMILES: CCN(C/C=C/C#CC(C)(C)C)Cc1cccc(NC[Si](C)(C)c2ccccc2C)c1 [(3-{[((E)-6,6-Dimethyl-hept-2-en-4-ynyl)-ethyl-amino]-methyl}-phenyl)-[(dimethyl-o-tolyl-silanyl)-methyl]-amine]
